System: EGFR driver alteration-positive NSCLC patients
Experiment: Progression free survival (PFS) from start of 1st line Osimertinib in a real-world NSCLC patient cohort (Kaplan Meier)
Format: in vivo, human
Conditions: for median progression free survival (mPFS): 45 patients, 1st line Osimertinib
Text: Starting with a patient cohort of 15,035 patients, the data was filtered (for biopsy type and bait set). The data was then filtered to exclude data for patients for whom a computational tumor purity was less than or equal to 20% or for whom a computational tumor purity value was missing. The remaining patient data was divided according to whether the samples were early-stage specimens, late-stage specimens, or of ambiguous origin. For the late-stage specimens, data for patients who were first diagnosed prior to Jan. […] Finally, data was selected for N=135 1st line Osimertinib-treated, EGFR driver alteration-positive NSCLC patients for whom tumor samples were sequenced at most a year prior to start of therapy.
The group of 135 patients were then divided into three tertiles with 45 patients each. Progression free survival (PFS) from start of 1st line Osimertinib was determined as follows: • Index state was the start of 1st line therapy. • Progression date: for patients who received a subsequent line of therapy, the event date was the earliest progression event that occurred more than 14 days after the index date, or date of death, provided that the progression event or date of death occurred before the start date of the subsequent line of therapy plus 14 days. For patients without a subsequent line of therapy, the event date was the earliest progression event that occurred more than 14 days after the index date, or the date of death. • Censor date: patients with a subsequent line of therapy were censored at their last clinic note date if it occurred between the index date and the start date of the subsequent line of therapy plus 14 days. Patients for whom the last clinic note date was not available within this window were censored at their last date of confirmed structured activity (i.e., the last available visit date within the Visit Table) within this time window. Patients without a subsequent line of therapy were censored at their last clinic note date.

`C=CC(=O)Nc1cc(Nc2nccc(-c3cn(C)c4ccccc34)n2)c(OC)cc1N(C)CCN(C)C` [Osimertinib] was tested. Which “median progression free survival (mPFS)” value (first tertile (lowest tumor heterogeneity score)) did it give?
The value was 16.5 months.

And the “median PFS” value (high score group: tumor heterogeneity score >=1, 1st line Osimertinib)?
Its value is 10.8 months.

What about the “median PFS” value (low score group: tumor heterogeneity score <1, 1st line Osimertinib) of the same molecule?
The value was 16.0 months.

And the mPFS (score category High (THS >=1), EGFR CCF category High (CCF >=0.5), N=74)?
The mPFS was 11.11.

And the mPFS (score category High (THS >=1), EGFR CCF category Low (CCF <0.5), N=12)?
Its mPFS is 6.54 months.

What about the mPFS (score category Low (THS <1), EGFR CCF category High (CCF >=0.5), N=39) of the same molecule?
The mPFS was 16.01 months.

What about the “median progression free survival (mPFS)” value (second tertile (intermediate tumor heterogeneity score)) of the same molecule?
Its value is 10.5 months.

And the “median progression free survival (mPFS)” value (third tertile (highest tumor heterogeneity score))?
Its value is 11.9 months.

What about the “Median progression free survival (mPFS) from start of 1st line Osimertinib” value (whole cohort, N=135 EGFR driver alteration-positive NSCLC patients) of the same molecule?
Its value is 12.7 months.

Source: patent US20250210194A1, “METHODS AND SYSTEMS FOR D[…] HETEROGENEITY” (Foundation Medicine, Inc., priority 2022, published 2025)
